In one assay the target is T1, CDK8/CycC (Homo sapiens, UniProt P49336).
T1 construct: purchased Carna Biosciences
Briefly: CDK8 inhibitory activity (TR-FRET, Kinase Tracer-236 displacement). Type of assay: binding. The following applies: 1 μM of the test compound; read-out: Percent inhibition of CDK8 activity (%). Put shortly:
(§1)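 Binding assay measuring displacement of Kinase Tracer-236 (60 nM in the added mix) by compound, using Eu-cryptate anti-GST antibody with CDK8/CycC (84 ng/mL) or CDC2L6/CycC (87 ng/mL) solutions. After 1 h at room temperature, TR-FRET read at 615 and 665 nm (excitation 320 nm).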
Background: TR-FRET usually uses a lanthanide donor and a delayed reading to cut background.

Assay [1] concerns SW480 human colorectal cancer cells. Kind of assay: Antitumor efficacy in mice bearing SW480 human colorectal cancer xenograft. The class given is in vivo, BALB/c female nude mice. The following applies: Mus musculus, SW480, 336 h, oral, 1 dose per day, 14 days, percent tumor growth relative to control group, read-out: T/C (%). The method, then: The compound of the present invention was evaluated for its antitumor efficacy in mice bearing cancer derived from SW480 human colorectal cancer cells by the following method.
SW480 human colorectal cancer cells were transplanted into 6- to 7-week-old BALB/c female nude mice (CLEA Japan) by subcutaneous injection of 2.0×10^6 cells per mouse. At 7 to 14 days after the transplantation, the size of the engrafted tumor was measured, and the tumor volume was calculated according to the following formula. Tumor volume=major axis×minor axis×minor axis×(½)
Test subjects having an engrafted tumor with a tumor volume of approximately 100 mm^3 were selected and used in the experiment (6 subjects per group). A suspension of each test compound in a 0.5% methylcellulose solution (Wako Pure Chemical Industries) was orally administered to the mice for 14 days at the dose (mg/kg body weight, indicating the amount per dose) and the number of doses shown in Table 4. On the day before the start of the administration and the day before the completion of the administration, the tumor size was measured, and the tumor volume was calculated.
Percent tumor growth (T/C (%)) of the test compound administration group relative to the control administration group was calculated according to the following formula. T/C(%)=(tumor volume of the test compound administration group after the completion of the administration−tumor volume of the test compound administration group at the day before the start of the administration)/(tumor volume of the control administration group after the completion of the administration−tumor volume of the control administration group at the day before the start of the administration))×100
Background: In xenograft studies the graft and the host belong to different species.

The target of another assay is T2, CDK19 (CDC2L6/CycC) (Homo sapiens, UniProt Q9BWU1).
T2 construct: purchased Carna Biosciences
T2 sequence (Q9BWU1 whole entry): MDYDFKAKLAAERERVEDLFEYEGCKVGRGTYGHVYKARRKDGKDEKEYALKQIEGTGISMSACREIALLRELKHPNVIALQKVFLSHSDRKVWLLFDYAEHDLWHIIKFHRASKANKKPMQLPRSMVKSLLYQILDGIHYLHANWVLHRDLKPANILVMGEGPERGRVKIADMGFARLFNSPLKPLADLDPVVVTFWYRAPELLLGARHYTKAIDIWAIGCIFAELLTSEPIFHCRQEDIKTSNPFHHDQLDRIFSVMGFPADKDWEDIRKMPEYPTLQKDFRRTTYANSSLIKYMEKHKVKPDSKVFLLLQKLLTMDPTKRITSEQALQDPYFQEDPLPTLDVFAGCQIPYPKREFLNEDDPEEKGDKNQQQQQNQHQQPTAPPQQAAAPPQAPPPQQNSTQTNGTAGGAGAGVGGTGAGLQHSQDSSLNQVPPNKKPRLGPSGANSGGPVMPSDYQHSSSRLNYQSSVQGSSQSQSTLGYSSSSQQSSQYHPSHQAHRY
T2 sequence (P24863 whole entry partner): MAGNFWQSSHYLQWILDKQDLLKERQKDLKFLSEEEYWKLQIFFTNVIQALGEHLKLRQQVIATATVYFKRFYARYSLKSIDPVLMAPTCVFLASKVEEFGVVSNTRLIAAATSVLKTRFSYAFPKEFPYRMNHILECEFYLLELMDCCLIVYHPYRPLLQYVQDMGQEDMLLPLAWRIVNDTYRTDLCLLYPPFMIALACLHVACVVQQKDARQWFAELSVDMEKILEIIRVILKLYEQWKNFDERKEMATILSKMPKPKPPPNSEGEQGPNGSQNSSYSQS
Briefly: CDK19 inhibitory activity (TR-FRET, Kinase Tracer-236 displacement). The class given is binding. The following applies: 1 μM of the test compound; read-out: Percent inhibition of CDK19 activity (%). Put shortly: as §1

For assay [2], the system named is human multiple myeloma RPMI8226 cells. Kind of assay: Inhibitory activity against human multiple myeloma RPMI8226 cell growth (CellTiter-Glo). Type of assay: cell-based. The settings on record: Homo sapiens, RPMI-8226, 192 h, 1 μM of the test compound, cultured for 8 days; read-out: Percent inhibition of RPMI8226 cell growth (%). Put shortly: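 RPMI8226 cells (300/well) cultured 1 day at 37 °C, 5% CO2, then given compound at 1 μM for 8 days. ATP luminescence (CellTiter-Glo) read; percent inhibition relative to 0.1% DMSO wells.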
On the technique in general: ATP-based viability assays read luminescence as a measure of living cells.

T1 sequence (P49336 whole entry): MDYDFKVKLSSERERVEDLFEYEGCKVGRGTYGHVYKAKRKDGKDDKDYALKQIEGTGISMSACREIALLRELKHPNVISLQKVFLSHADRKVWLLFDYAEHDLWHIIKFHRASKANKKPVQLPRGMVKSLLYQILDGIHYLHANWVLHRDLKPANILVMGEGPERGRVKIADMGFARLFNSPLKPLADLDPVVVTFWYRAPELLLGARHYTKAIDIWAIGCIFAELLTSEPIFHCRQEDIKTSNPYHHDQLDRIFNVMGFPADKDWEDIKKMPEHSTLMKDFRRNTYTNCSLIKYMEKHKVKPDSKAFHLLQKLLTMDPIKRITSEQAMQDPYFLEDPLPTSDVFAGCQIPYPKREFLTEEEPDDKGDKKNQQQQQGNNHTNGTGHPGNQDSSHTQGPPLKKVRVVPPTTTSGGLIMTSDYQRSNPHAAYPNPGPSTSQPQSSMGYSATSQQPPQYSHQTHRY
T1 sequence (P24863 whole entry partner): as the sequence (P24863 whole entry partner) above

The inhibition is the change of the read-out against control, counted positive when it falls. In the case of `Cn1cc(-c2ccncc2/C=C/C(=O)Nc2ccc3c(c2)CN(CC(F)(F)F)C3)cn1` [Example 289, (2E)-3-(4-(1-Methyl-1H-pyrazol-4-yl)pyridin-3-yl)-N-(2-(2,2,2-trifluoroethyl)-2,3-dihydro-1H-isoindol-5-yl)acrylamide], the inhibition at 1 µM is 98% at CDK8/CycC, 102% at CDK19 (CDC2L6/CycC) and 64% in assay [2]. Also, the response vs control in vivo at 50 mg/kg in assay [1] (50 mg/kg) came to 31%.

Take `O=C(/C=C/c1cnccc1-c1cnn(C2CC2)c1)Nc1ccc(CN2CC(F)(F)C2)cc1` [Example 309, (2E)-3-(4-(1-Cyclopropyl-1H-pyrazol-4-yl)pyridin-3-yl)-N-(4-((3,3-difluoroazetidin-1-yl)methyl)phenyl)acrylamide]: the figures for the inhibition at 1 µM (at CDK8/CycC; at CDK19 (CDC2L6/CycC); in assay [2]) were 105%, 101% and 58%, respectively. The response vs control in vivo at 30 mg/kg in assay [1] was 51%.

As to `O=C(/C=C/c1cncc(F)c1-c1cnn(C2CC2)c1)Nc1ccc2c(c1)CN(CC(F)(F)F)C2` [Example 324, (2E)-3-(4-(1-Cyclopropyl-1H-pyrazol-4-yl)-5-fluoropyridin-3-yl)-N-(2-(2,2,2-trifluoroethyl)-2,3-dihydro-1H-isoindol-5-yl)acrylamide], the inhibition at 1 µM at CDK8/CycC came to 104%; at CDK19 (CDC2L6/CycC), 100%; in assay [2], 58%. Besides, the response vs control in vivo at 30 mg/kg in assay [1] was found to be 29%.

Turning to `Cn1cc(-c2c(F)cncc2/C=C/C(=O)Nc2ccc(CN3CC(F)(F)C3)cc2)cn1` [Example 359, (2E)-N-(4-((3,3-Difluoroazetidin-1-yl)methyl)phenyl)-3-(5-fluoro-4-(1-methyl-1H-pyrazol-4-yl)pyridin-3-yl)acrylamide], the inhibition at 1 µM at CDK8/CycC was 103%; on CDK19 (CDC2L6/CycC) it was 102%; in assay [2] it was 65%. The response vs control in vivo at 30 mg/kg in assay [1] amounted to 36%.

(Values after patent US9957251B2 (Takeda Pharmaceutical Company Limited, priority 2014, dated 2018).)
